US7125900B2, “Inhibitors of 11-β-hydroxy steroid dehydrogenase type 1” (Biovitrum AB, priority 2000, dated 2006)

Tests used:
human 11-β-HSD1 enzyme = biological target: T1, human 11-β-HSD1 enzyme (Homo sapiens, UniProt P28845); experiment: human 11-β-HSD1 enzyme assay (scintillation proximity assay); format: biochemical; details: human 11-β-HSD1 expressed in Pichia pastoris; Ki calculated from IC50 by Cheng-Prusoff
T1 construct: made in house; host or cells: Pichia pastoris
Text: [1, 2(n)—^3H]-cortisone was purchased from Amersham Pharmacia Biotech. Anti-cortisol monoclonal mouse antibody, clone 6D6.7 was obtained from Immunotech and Scintillation proximity assay (SPA) beads coated with monoclonal antimouse antibodies were from Amersham Pharmacia Biotech. NADPH, tetrasodium salt was from Calbiochem and glucose-6-phosphate (G-6-P) was supplied by Sigma. The human 11-β-hydroxysteroid dehydrogenase type-I enzyme (11-β-HSD1) was expressed in Pichia pastoris. 18-β-glycyrrhetinic acid (GA) was obtained from Sigma. The serial dilutions of the compounds were performed on a Tecan Genesis RSP 150. Compounds to be tested were dissolved in DMSO (1 mM) and diluted in 50 mM Tris-HCl, pH 7.2 containing 1 mM EDTA.
The multiplication of plates was done on a WallacQuadra. The amount of the product [^3H]-cortisol, bound to the beads was determined in a Packard, Top Count microplate liquid scintillation counter.
The 11-β-HSD1 enzyme assay was carried out in 96 well microtiter plates (Packard, Optiplate) in a total well volume of 220 μL and contained 30 mM Tris-HCl, pH 7.2 with 1 mM EDTA, a substrate mixture tritiated Cortisone/NADPH (175 nM/181 μM), G-6-P (1 mM) and inhibitors in serial dilutions (9 to 0.15 μM). Reactions were initiated by the addition of human 11-β-HSD1, either as Pichia pastoris cell homogenate or microsomes prepared from Pichia pastoris (the final amount of enzyme used was varied between 0.057 to 0.11 mg/mL). Following mixing, the plates were shaken for 30 to 45 minutes at room temperature. The reactions were terminated with 10 μL 1 mM GA stop solution. Monoclonal mouse antibody was then added (10 μL of 4 μM) followed by 100 μL of SPA beads (suspended according to the manufacturers instructions). Appropriate controls were set up by omitting the 11-β-HSD1 to obtain the non-specific binding (NSB) value.
The plates were covered with plastic film and incubated on a shaker for 30 minutes, at room temperature, before counting. The amount of [^3H]-cortisol, bound to the beads was determined in a microplate liquid scintillation counter.
The calculation of the Ki values for the inhibitors was performed by use of Activity Base. The Ki value is calculated from IC50 and the Km value is calculated using the Cheng Prushoff equation (with reversible inhibition that follows the Michaelis-Menten equation): […] [Cheng, Y. C.; Prushoff, W. H. Biochem. Pharmacol. 1973, 22, 3099-3108]. The IC50 is measured experimentally in an assay wherein the decrease of the turnover of cortisone to cortisol is dependent on the inhibition potential of each substance. […] Illustrative of the invention, the following Ki values have been determined in the human 11-β-HSD1 enzyme assay (see Table 1): […]

bone nodule formation = details: cited from earlier work

T1 sequence (P28845 whole entry): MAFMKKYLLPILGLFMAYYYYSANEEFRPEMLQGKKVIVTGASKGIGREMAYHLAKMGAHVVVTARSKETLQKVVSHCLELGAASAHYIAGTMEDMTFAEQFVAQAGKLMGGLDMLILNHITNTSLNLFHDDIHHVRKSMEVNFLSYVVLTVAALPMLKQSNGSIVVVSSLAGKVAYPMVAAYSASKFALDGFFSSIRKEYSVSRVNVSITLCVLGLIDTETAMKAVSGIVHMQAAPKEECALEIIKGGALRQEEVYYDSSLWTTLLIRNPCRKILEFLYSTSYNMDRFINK

SMILES: Cc1csc(NS(=O)(=O)c2cccc(Cl)c2C)n1 [Example 3, 3-Chloro-2-methyl-N-(4-methyl-1,3-thiazol-2-yl)benzenesulfonamide]
- Ki (human 11-β-HSD1 enzyme): 122 nM

SMILES: Cc1nc(NS(=O)(=O)c2c(Cl)cc(Cl)cc2Cl)sc1CC(Cl)(Cl)Cl [Example 6, 2,4,6-trichloro-N-[4-methyl-5-(2,2,2-trichloroethyl)-1,3-thiazol-2-yl]benzenesulfonamide]
- Ki (human 11-β-HSD1 enzyme): 123 nM
- melting point: 228 to 229 °C

SMILES: CCCc1csc(NS(=O)(=O)c2cccc(Cl)c2C)n1 [Example 11, 3-Chloro-2-methyl-N-(4-propyl-1,3-thiazol-2-yl)benzenesulfonamide]
- melting point: 169 °C

SMILES: Cc1c(Cl)cccc1S(=O)(=O)Nc1nc(C(C)(C)C)cs1 [Example 15, N-(4-Tert-butyl-1,3-thiazol-2-yl)-3-chloro-2-methylbenzenesulfonamide]
- melting point: 178 °C

SMILES: C=Cc1csc(NS(=O)(=O)c2cccc(Cl)c2C)n1 [Example 18, 3-Chloro-2-methyl-N-(4-vinyl-1,3-thiazol-2-yl)benzenesulfonamide]
- Ki (human 11-β-HSD1 enzyme): 90 nM

SMILES: CC(=O)c1sc(NS(=O)(=O)c2ccc(Oc3cccc(Cl)c3C#N)cc2)nc1C [Example 22, N-(5-acetyl-4-methyl-1,3-thiazol-2-yl)-4-(3-chloro-2-cyanophenoxy)benzenesulfonamide]
- Ki (human 11-β-HSD1 enzyme): 108 nM

SMILES: CC1(C)[C@@H](OC(=O)CCC(=O)O)CC[C@]2(C)[C@H]3C(=O)C=C4[C@@H]5C[C@@](C)(C(=O)O)CC[C@]5(C)CC[C@@]4(C)[C@]3(C)CC[C@@H]12 [carbenoxolone]
- negative glucocorticoid effect on bone nodule formation (bone nodule formation): blocked
